{"source": "paper PMC6471621", "about": "“Evaluation of the Anti-Trypanosomal Activity of Vietnamese Essential Oils, with Emphasis on Curcuma longa L. and Its Components” (Molecules, 2019)", "key": {"[1]": {"assay": "Cytotoxicity assay (MTT) on WI38", "type": "cell-based", "conditions": "human", "protocol": "(§1) The human non-cancer fibroblast cell line WI38 (ATCC Number CCL-75 – Standards, UK) and macrophage-like murine cell line J774 (ECACC Number 91051511 – Public Health England, UK) were grown in DMEM and RPMI medium (Gibco-Thermo Fisher Scientific, Merelbeke, Belgium or Sigma-Aldrich, Bornem, Belgium), respectively, supplemented with 10% fetal bovine serum and penicillin-streptomycin (100 UI/mL) (Sigma-Aldrich, Bornem, Belgium).\n(§2) The cytotoxicity assays were performed as described previously with concentrations ranging from 50 to 1.40 nL/mL (dilution of 1.67). The selectivity index (SI) values were calculated using the formula:SI = IC50 on mammalian cells/IC50 on protozoan parasites"}, "[2]": {"assay": "Cytotoxicity assay (MTT) on J774", "type": "cell-based, murine", "conditions": "mouse", "protocol": "as §1, §2"}, "[3]": {"system": "Trypanosoma brucei brucei (Tbb, strain 427) bloodstream form", "assay": "Anti-trypanosomal assay (alamar blue, 72 h) on Tbb bloodstream form", "type": "cell-based", "conditions": "for IC50: Trypanosoma brucei, Tbb bloodstream form", "protocol": "Trypanosoma brucei brucei, although not infecting humans because of its susceptibility to the innate immune system, has been used as a good predictive model in a first screening for the identification of anti-trypanosomal compounds [52, 53]. Bloodstream forms of this parasite (Tbb, strain 427) were grown in HMI-9 medium (IMDM-Gibco-Thermo Fisher Scientific, Merelbeke, Belgium-supplemented with 10% heat-inactivated fetal bovine serum (Sigma-Aldrich, Bornem, Belgium) and bloodstream form supporting factors).\nThe assay was performed in 96-well plates as previously described. The primary screening was repeated two times in triplicate at the concentrations of 50 nL/mL and 25 nL/mL (for 33 EOs) or 10 nL/mL and 5 nL/mL (for 4 EOs). Fifty µL of parasite culture (5 x 10^4 parasites/mL) was added with 50 µL of diluted EOs in each well. Ten µL of alamar blue (diluted with PBS at the ratio 1:1) was added to each well after 72 h of incubation and the plates were further incubated for 4 h. The fluorescence of the reduced reagent was measured on a spectrophotometer at 530 nm excitation and 590 nm emission wavelengths. Suramin was used as positive control. The EOs that inhibited more than 50% of the parasite growth at 25 or 10 nL/mL were analyzed for IC50 determination. Samples were tested in eight serial three-fold dilutions ranging from 50–0.02 nL/mL, except Cinnamomum cassia EO, Curcuma zedoaria EO, and Zingiber zerumbet EO (ranging from 10–0.005 nL/mL) and Dysphania ambrosioides EO (ranging from 5–0.002 nL/mL) in duplicate. IC50 values were calculated from dose response growth inhibition curves using Microsoft Excel files and mean IC50 values were obtained from at least three repetitions."}, "Tbb bloodstream form": {"system": "Tbb bloodstream form", "conditions": "cited from earlier work"}, "[4]": {"system": "different human cancer cells", "conditions": "cited from earlier work"}, "Trypanosoma brucei": {"system": "Trypanosoma brucei", "conditions": "read-out: Anti-trypanosomal IC50; cited from earlier work"}, "[5]": {"system": "CHO, WI38, Balb/3T3 fibroblast, and J774", "parameters": "method as in PMID 24269775, PMID 27529211, PMID 16557466", "conditions": "cited from earlier work"}, "[6]": {"conditions": "in Curcuma longa, pure compounds of C. longa EO, read-out: Anti-Trypanosomal Activity (IC50)"}, "[7]": {"conditions": "WI38 human non-cancer fibroblast cells, pure compounds of C. longa EO, read-out: Cytotoxicity (IC50) WI38"}, "[8]": {"conditions": "J774 macrophage-like murine cells, pure compounds of C. longa EO, read-out: Cytotoxicity (IC50) J774"}, "[9]": {"conditions": "highest tested concentration 50 µg/mL"}}, "note": "Like-named read-outs stand apart in the source and are kept apart here.", "data": [{"smiles": "CC[C@@]1(O)C(=O)OCc2c1cc1n(c2=O)Cc2cc3ccccc3nc2-1", "note": "[Camptothecin, reference compound]", "values": [{"measurement": "IC50", "setting": "[1]; WI38 human non-cancer fibroblast cells, positive control, read-out: Cytotoxicity (IC50) WI38", "result": "0.035 ± 0.00963", "unit": "µg/mL"}, {"measurement": "IC50", "setting": "[2]; J774 macrophage-like murine cells, positive control, read-out: Cytotoxicity (IC50) J774", "result": "0.00732 ± 0.00129", "unit": "µg/mL"}]}, {"smiles": "C=C1C=CC(C(C)CC(=O)C=C(C)C)CC1", "note": "(stereo not drawn) [Curlone]", "values": [{"measurement": "IC50", "setting": "[3]; [6]", "result": "1.38 ± 0.52", "unit": "µg/mL"}, {"measurement": "IC50", "setting": "[3]; read-out: Anti-trypanosomal IC50", "result": 6.32, "unit": "µM"}, {"measurement": "SI compared to cytotoxicity", "setting": "[3]; compared to cytotoxicity on mammalian cells (WI38 and J774)", "result": "> 10"}, {"measurement": "IC50", "setting": "[1]; [7]", "result": "43.6 ± 2.45", "unit": "µg/mL"}, {"measurement": "IC50", "setting": "[2]; [8]", "result": "25.1 ± 3.47", "unit": "µg/mL"}]}, {"smiles": "CC(C)=C1C/C=C(\\C)CC/C=C(\\C)CC1=O", "note": "[Germacrone]", "values": [{"measurement": "Anti-trypanosomal IC50", "setting": "Tbb bloodstream form; Tbb bloodstream form, ref 32", "result": "> 100", "unit": "µg/mL"}]}, {"smiles": "Cc1ccc(C(=O)Nc2ccc(S(=O)(=O)O)c3cc(S(=O)(=O)O)cc(S(=O)(=O)O)c23)cc1NC(=O)c1cccc(NC(=O)Nc2cccc(C(=O)Nc3cc(C(=O)Nc4ccc(S(=O)(=O)O)c5cc(S(=O)(=O)O)cc(S(=O)(=O)O)c45)ccc3C)c2)c1", "note": "[Suramin, reference compound]", "values": [{"measurement": "IC50", "setting": "[3]; positive control, read-out: Anti-Trypanosomal Activity (IC50)", "result": "0.0215 ± 0.00262", "unit": "µg/mL"}]}, {"smiles": "CC(C)=CCCC(C)c1ccc(C)cc1", "note": "(stereo not drawn) [ar-Curcumene]", "values": [{"measurement": "IC50", "setting": "[3]; [6]", "result": "13.4 ± 2.46", "unit": "µg/mL"}, {"measurement": "IC50", "setting": "[1]; [7]", "result": "23.1 ± 1.36", "unit": "µg/mL"}, {"measurement": "IC50", "setting": "[2]; [8]", "result": "24 ± 2.64", "unit": "µg/mL"}]}, {"smiles": "CC(C)=CC(=O)CC(C)c1ccc(C)cc1", "note": "(stereo not drawn) [ar-Turmerone]", "values": [{"measurement": "IC50", "setting": "[3]; [6]", "result": "28.8 ± 3.93", "unit": "µg/mL"}, {"measurement": "IC50", "setting": "[1]", "result": "43.4 ± 3.89", "unit": "µg/mL"}, {"measurement": "IC50", "setting": "[2]", "result": "44.6 ± 1.41", "unit": "µg/mL"}, {"measurement": "Apoptotic effects (release of mitochondrial cytochrome c, activation of capase-3)", "setting": "[4]; at 40, 80, and 120 µg/mL", "result": "apoptotic effects"}]}, {"smiles": "O=C(/C=C/c1ccc(O)cc1)CC(=O)/C=C/c1ccc(O)cc1", "note": "[bisdemethoxycurcumin]", "values": [{"measurement": "IC50", "setting": "Trypanosoma brucei", "result": "9.84 ± 0.84", "unit": "µM"}]}, {"smiles": "C=C1C2CCC(C2)C1(C)C", "note": "(stereo not drawn) [camphene]", "values": [{"measurement": "Anti-trypanosomal IC50", "setting": "Tbb bloodstream form; Tbb bloodstream form, ref 41", "result": "80.66 ± 0.87", "unit": "µg/mL"}]}, {"smiles": "CC(C)=CCC[C@@H](C)CC=O", "note": "[citronellal]", "values": [{"measurement": "Anti-trypanosomal IC50", "setting": "Tbb bloodstream form; Tbb bloodstream form, ref 28", "result": "2.76 ± 1.55", "unit": "µg/mL"}, {"measurement": "Cytotoxicity at the highest tested concentration", "setting": "[5]; [9]", "result": "did not show any cytotoxicity"}]}, {"smiles": "CC(C)=CCCC(C)CCO", "note": "(stereo not drawn) [citronellol]", "values": [{"measurement": "Anti-trypanosomal IC50", "setting": "Tbb bloodstream form; Tbb bloodstream form, ref 28", "result": "6.45 ± 4.86", "unit": "µg/mL"}, {"measurement": "Cytotoxicity at the highest tested concentration", "setting": "[5]; [9]", "result": "did not show any cytotoxicity"}]}, {"smiles": "COc1cc(/C=C/C(=O)CC(=O)/C=C/c2ccc(O)c(OC)c2)ccc1O", "note": "[curcumin]", "values": [{"measurement": "IC50", "setting": "Trypanosoma brucei", "result": "~5", "unit": "µM"}]}, {"smiles": "COc1cc(/C=C/C(O)=C/C(=O)/C=C/c2ccc(O)cc2)ccc1O", "note": "[demethoxycurcumin]", "values": [{"measurement": "IC50", "setting": "Trypanosoma brucei", "result": "7.19 ± 1.02", "unit": "µM"}]}, {"smiles": "CC12CCC(CC1)C(C)(C)O2", "note": "[eucalyptol]", "values": [{"measurement": "Anti-trypanosomal IC50", "setting": "Tbb bloodstream form; Tbb", "result": 83.15, "unit": "µg/mL"}]}, {"smiles": "C=C(C)[C@H]1CC=C(C)CC1", "note": "[limonene]", "values": [{"measurement": "Anti-trypanosomal IC50", "setting": "Tbb bloodstream form; Tbb bloodstream form, ref 28", "result": "4.24 ± 1.27", "unit": "µg/mL"}, {"measurement": "Anti-trypanosomal IC50", "setting": "Tbb bloodstream form; Tbb bloodstream form, ref 29", "result": "5.6 ± 1.6", "unit": "µg/mL"}]}, {"smiles": "C=CC(C)(O)CCC=C(C)C", "note": "(stereo not drawn) [linalool]", "values": [{"measurement": "Anti-trypanosomal IC50", "setting": "Tbb bloodstream form; Tbb bloodstream form, ref 30", "result": 2.5, "unit": "µg/mL"}, {"measurement": "Cytotoxicity at the highest tested concentration", "setting": "[5]; highest tested concentration 100 µg/mL", "result": "did not show any cytotoxicity"}]}, {"smiles": "C=C1C=CC(C(C)CCC=C(C)C)CC1", "note": "(stereo not drawn) [β-Sesquiphellandrene]", "values": [{"measurement": "IC50", "setting": "[3]; [6]", "result": "9.89 ± 1.18", "unit": "µg/mL"}, {"measurement": "IC50", "setting": "[1]; [7]", "result": "19.1 ± 1.58", "unit": "µg/mL"}, {"measurement": "IC50", "setting": "[2]; [8]", "result": "21 ± 2.72", "unit": "µg/mL"}, {"measurement": "Apoptotic effects (release of mitochondrial cytochrome c, activation of capase-3)", "setting": "[4]; at 5.10 µg/mL", "result": "apoptotic effects"}]}]}
